Entries after “also recorded” stand apart in the source; their conditions may differ. No end group written: not given here.
Assays:
BACE-1 [1] = system: BACE-1; set-up: method as in Lee et al., 2019; conditions: ref Lee et al., 2019; cited from earlier work
SH-SY5Y cells = system: SH-SY5Y cells; set-up: method as in Lee et al., 2019; conditions: ref Lee et al., 2019; cited from earlier work
BACE-1 [2] = system: BACE-1; set-up: method as in Wu et al., 2016; conditions: ref Wu et al., 2016; cited from earlier work
[3] = Histology of organs and toxicity after peptide injection; assay type: in vivo, mice
Source text: Organs were removed and immediately fixed in Bouin’s solution for processing by dehydration ethanol sessions and historesin embedding to obtain 3 µm thick transversal slides. Sections were stained with hematoxylin–eosin and examined using a light microscope for a qualitative analysis.

[4] = Peptide quantification in mouse organs by mass spectrometry; assay type: in vivo; conditions: mice, 4 mg/kg i.v.
Experimental: (§1) A single dose of the peptide diluted in sterile PBS (pH 7.4) was injected intravenously in the bolus into the caudal vein of mice (n = 3) at a concentration of 4 mg/kg (0.2 mL). A group of animals (n = 3) received the sterile saline solution for the plasma and organ control, without the peptide (named ‘basal’). Blood was taken after 0, 5, and 30 min and 2, 6, and 24 h after injection. At these times, blood was collected via the retro-orbital route using a Pasteur pipette and dispensed into plastic tubes containing EDTA. The final blood volume was subjected to centrifugation at 1,500 rpm for 10 min at room temperature to obtain plasma, which was stored in a −80°C freezer until the analysis.
Moreover, organs were obtained at the same times, after a lethal injection of anesthetics (ketamine 300 mg/kg and xylazine 30 mg/kg). The organs collected included the brain, pancreas, spleen, kidneys, lungs, and liver. The organs were washed with the saline solution to remove excess blood, frozen in liquid nitrogen, and kept at −80°C until use. For the experiments, organs were submerged in 1 mL of 50 mM PBS with pH 7.5 containing peptidases inhibitors (aprotinin, bestatin, E-64, leupeptin, and pepstatin A, a protease inhibitor cocktail, Sigma-Aldrich) and lysed in a tissue and cell disruptor (ULTRA-TURRAX IKA, Staufen, Germany). The lysate was centrifuged for 2 min at 13,200 rpm at 4°C, and the supernatant resulting from centrifugation was stored in a −80°C freezer until the analysis.
(§2) Both plasma and organs (150 μL) were incubated with 100 mM DL-dithiothreitol at room temperature for 30 min; after that, they were incubated to 300 mM iodoacetamide at room temperature for another 30 min in the dark. Subsequently, 150 μL of 0.1% formic acid solution and 400 μL of Milli-Q water were added and agitated for 5 min. The samples were then submitted to solid-phase extraction using a C18 cartridge (Supelco) with elution in a 60:40 acetonitrile:water solution (v/v). The eluate was inserted by mass spectrometry for analysis and quantification.
(§3) The determination and quantification of the peptide in plasma and organs of mice were performed by liquid chromatography (UPLC system, Waters Co.) coupled to mass spectrometry ESI-Xevo TQ-S (Waters Co., United States). The samples were inserted in a C18 column (Luna, 5 μm, 150 × 4.6 mm, Phenomenex) and eluted by 70% methanol in water, containing 0.05% formic acid in a constant flow of 0.3 mL/min. The ion was monitored at the positive ionization mode, 150°C source temperature, 550°C desolvation temperature, 800 L/h desolvation gas flow, 2 kV for capillary, and […] cone voltage. Data were acquired and analyzed using MassLynx 4.
(§4) To define the relationship between the instrument response and the known concentration of the peptide, a calibration curve with six points of the peptide (0.1–20 μg/mL for plasma and 5–40 μg/mL for organs) was generated in a range defined according to the sensitivity of the method and the expected concentrations of the samples in animals (based on the amount of peptide injected).
(§5) The plasma concentration (Cp), in µg/L, was determined by mass spectrometric analysis, and then, area data were analyzed using the PKSolver add-in program for Microsoft Excel. Pharmacokinetics parameters as the natural logarithm of Cp (lnCp), Cp0, half-life, and clearance were calculated in a compartmental analysis of plasma data after the intravenous bolus input ([Zhang et al., 2010]). For organs, data are present as mean ± SD for each point.

in vivo = test: in vivo; set-up: species or system mice; conditions: mouse
Experimental: Authorization for pharmacokinetics analyses was obtained from the Ethics Committee of Instituto Butantan (CEUAIB 58872400322), where the experiments with animals were carried out. Healthy adult male Swiss mice weighing approximately 25 g were used. All animals were placed in microisolators for a 12-h light/dark cycle, 70% humidity, and a constant average temperature (22°C).
as §1, §2, §3, §4
Each analysis lot contained the following samples: a calibration curve consisting of a blank sample (peptide-free biological matrix), samples containing peptide standard, and plasma or organ samples. Calibration functions were calculated using the peak areas of the peptide. The peptide concentrations in the samples were calculated from the weighted linear regression equation (1/×2) obtained from the calibration curve (peptide concentration as the function of the area). This regression model (1/×2) was used because of the amplitude of the calibration curve.
as §5

recombinant BACE-1 = molecular target: T1, recombinant BACE-1 (Homo sapiens, UniProt P56817); test: Enzymatic kinetics on recombinant BACE-1 (Lineweaver-Burk); assay type: biochemical; conditions: 10 μM peptide, substrate 0–32 µM
T1 construct: purchased Sigma-Aldrich MAK237
T1 sequence (P56817 46-501): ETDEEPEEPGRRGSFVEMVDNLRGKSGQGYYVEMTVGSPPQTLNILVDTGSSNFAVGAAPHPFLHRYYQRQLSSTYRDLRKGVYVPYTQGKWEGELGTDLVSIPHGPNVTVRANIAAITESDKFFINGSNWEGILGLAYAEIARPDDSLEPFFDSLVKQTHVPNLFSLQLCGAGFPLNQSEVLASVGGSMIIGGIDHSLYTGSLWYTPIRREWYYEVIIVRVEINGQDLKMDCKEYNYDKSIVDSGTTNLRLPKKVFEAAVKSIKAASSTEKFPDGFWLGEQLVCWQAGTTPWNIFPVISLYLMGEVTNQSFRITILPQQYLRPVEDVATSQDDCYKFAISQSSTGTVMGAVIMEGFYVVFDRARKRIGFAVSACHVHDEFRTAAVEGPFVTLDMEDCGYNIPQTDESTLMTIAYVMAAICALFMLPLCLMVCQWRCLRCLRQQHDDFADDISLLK
Experimental: The peptide was commercially obtained (manufactured by Biotik, commercialized by FastBio, Brazil) and synthetized by the solid phase with >95% purity. The peptide was tested using an enzymatic kinetics model, in which 10 μM of peptide (diluted in 0.9% saline solution) was incubated with recombinant BACE-1 and reaction buffer for 15 min at room temperature (MAK237, Sigma-Aldrich, St Louis, MO, United States). After that, H-Arg-Glu (EDANS)[…](DABCYL)Arg-OH quencher substrate (0–32 µM) was added to the reaction mixture. Readings were taken using a fluorimeter (Glomax, Promega, Madison, WI, United States) every 5 min at 37° in a λex = 335 and λem = 510. Experiments were conducted in triplicate in two independent sets, and the mean of fluorescence was obtained for further calculations. The velocity of the reaction was calculated as ∆ fluorescence values at ∆ time for each substrate concentration. 1/V and 1/S values were obtained and plotted in a graph (Lineweaver–Burk plot), and kinetic parameters (slope, Vmax, Km, and Ki) were calculated as the mean ± SD using GraphPad Prism v5.

Q: What does the source list for Leu–Asn?
A: BACE-1 inhibitory activity among fragments derived from the original peptide (BACE-1 [1]): most potent activity; Aβ production in SH-SY5Y cells (SH-SY5Y cells): reducing the Aβ production

Q: With pyrazinecarboxamide as the substance, how does the IC50 (BACE-1 [2]) read?
A: < 1 nM

Q: For SLAFVDVLN [peptide], which “Clinical signals of toxicity” value ([3]; mice, single dose) is on record?
A: no clinical signals of toxicity were observed

Q: What about the “Histological alterations (cell/tissue morphology, inflammatory infiltrate)” value ([3]; spleen, liver, pancreas, lungs, kidneys, 5 and 30 min, 2 and 6 h after single 4 mg/kg i.v. dose, 4 mg/kg) of the same substance?
A: no morphological alteration in any organ; also recorded: No alterations were detected

Q: What about the “Peptide concentration in the kidneys over time” value [4] of the same substance?
A: increased 30 min after the injection, slightly decreased after 2 h, but increased after 6 h

Q: What about the “Time of peak of the peptide in the brain” value [4] of the same substance?
A: 2 h

Q: What about the “Time of peak of the peptide in the liver” value [4] of the same substance?
A: 30 min

Q: And the “Time of peak of the peptide in the spleen” value [4]?
A: 30 min

Q: What about the “Time the peptide could be found in the brain” value [4] of the same substance?
A: up to 6 h

Q: What about the “Peptide concentration in the lungs” value ([4]; 5 min after injection) of the same substance?
A: high concentration

Q: What about the “Peptide in the pancreas” value ([4]; 4 mg/kg) of the same substance?
A: not possible to identify; also recorded: could not be found

Q: What about the AUC(0-inf) (in vivo; male, Swiss, iv, 4 mg/kg) of the same substance?
A: 2600 ng·h/mL

Q: And the AUC(0-t) (in vivo; male, Swiss, iv, 4 mg/kg)?
A: 2600 ng·h/mL

Q: And the C0 (in vivo; male, Swiss, iv, 4 mg/kg)?
A: 2600 ng/mL

Q: And the MRT (in vivo; male, Swiss, iv, 4 mg/kg)?
A: 1 h

Q: What about the half-life (in vivo; male, Swiss, iv, 4 mg/kg, t1/2) of the same substance?
A: ~60 min

Q: What about the Vss (in vivo) of the same substance?
A: 0.0015

Q: What about the clearance (in vivo) of the same substance?
A: 0.0015

Q: What about the “Enzymatic cleavage of the peptide in vivo (intact mass, fragments by mass spectrometry)” value (in vivo; iv) of the same substance?
A: no enzymatic cleavage

Q: And the AUMC (in vivo; iv, 4 mg/kg)?
A: 2,595.96 μg/L*h^2

Q: And the CL (in vivo; iv, 4 mg/kg)?
A: 0.00154 (mg/kg)/(μg/L)/h

Q: And the V (in vivo; iv, 4 mg/kg)?
A: 0.00154 (mg/kg)/(μg/L)

Q: And the Vss (in vivo; iv, 4 mg/kg)?
A: 0.0015 mg/kg/(μg/L)

Q: And the Ki (recombinant BACE-1)?
A: 94 nM

Source: publication PMC10313070, “Design, in silico and pharmacological evaluation of a peptide inhibitor of BACE-1” (Frontiers in Pharmacology, 2023)
